{"source": "patent EP0652009A1", "about": "“Identification and use of protease inhibitors” (ELI LILLY AND COMPANY, priority 1993, dated 1995)", "note": "Non-standard residues stand in square brackets, D forms with d. Residues, ends and D or L forms follow the SMILES beside them. Sta = CC(C)C[C@H](N)[C@@H](O)CC(=O)O; N(iPr)Gly = CC(C)NCC(=O)O"}
{"system": "βAP production", "assay": "Assay 4: βAP production inhibition (cellular assay, ELISA of conditioned media, normalised to MTT)", "format": "cell-based, human; Chinese hamster", "conditions": "compound at 10 µg/mL; 293 751 SWE and CHO 751 SWE cells (table does not say which); βAP ELISA divided by MTT result, relative to drug-free control; mean and standard deviation of at least six replicate assays", "source_text": "The test system used to measure the βAP production inhibition activity is typically a cellular assay or an animal model. Preferably, the βAP production inhibition activity is obtained by direct measurement of βAP production in a cellular assay, as described in WO9410569, the full disclosure of which is incorporated herein by reference. This assay is exemplified in Assay 4, below.\nTwo cell lines (human kidney cell line 293 and Chinese hamster ovary cell line CHO) were stably transfected with the gene for APP-751 containing the double mutation Lys₆₅₁-Met₆₅₂ to Asn₆₅₁-Leu₆₅₂ (APP-751 numbering) commonly called the Swedish mutation using the method described in Citron et al., (1992) Nature 360:672-674. The transfected cell lines were designated as 293 751 SWE and CHO 751 SWE, and were plated in Corning 96 well plates at 2.5x10⁴ or 1x10⁴ cells per well respectively in Dulbecco's minimal essential media plus 10% fetal bovine serum. Following overnight incubation at 37°C in an incubator equilibrated with 10% carbon dioxide (CO₂), the media were removed and replaced with 200 µL per well of media containing an aspartyl protease inhibitor. After a two hour pretreatment period, the media were again removed and replaced with fresh media containing the aspartyl protease inhibitor and the cells were incubated for an additional two hours.\nAfter treatment, plates were centrifuged in a Beckman GPR at 1200 rpm for five minutes at room temperature to pellet cellular debris from the conditioned media. From each well, 100µL of conditioned media were transferred into an ELISA plate precoated with antibody 266 against βAP-13-28 (Seubert et al., supra.) and stored at 4°C overnight. An ELISA assay employing labelled antibody 6C6 (against βAP-1-16) was run the next day to measure the amount of βAP produced.\nCytotoxic effects of the compounds were measured by a modification of the method of Hansen et al., (1989) J. Immun. Meth. 119:203-210. To the cells remaining in the tissue culture plate, was added 25 µL of a 3,(4,5-dimethylthiazol-2-yl)2,5-diphenyltetrazolium bromide (MTT) stock solution (5 mg/mL) to a final concentration of 1 mg/mL. Cells were incubated at 37°C for one hour, and cellular activity was stopped by the addition of an equal volume of MTT lysis buffer (20% w/v sodium dodecylsulfate in 50% DMF, pH 4.7). Complete extraction was achieved by overnight shaking at room temperature. The difference in the OD562nm and the OD650nm was measured in a Molecular Devices UVmax microplate reader as an indicator of the cellular viability.\nThe results of the βAP ELISA were fit to a standard curve and expressed as ng/mL βAP peptide. In order to normalize for cytotoxicity, these βAP results were divided by the MTT results and expressed as a percentage of the results from a drug-free control.\nThe compounds prepared above in Examples 9, 12, 13, 20-23, 23A, 24, 30, 41-43, 45, and 48 were assayed for βAP production inhibition activity in cells at 10 µg/mL using Assay 4. The results presented in Assay Table 4, below, are the mean and standard deviation of at least six replicate assays. Assay Table 4", "units": {"βAP Production Inhibition": "%", "inhibition at 10 µg/mL": "%"}}
{"smiles": "Cc1ccc(C(=O)C2NCCc3ccccc32)cc1C(=O)N[C@@H](Cc1ccccc1)[C@H](O)CN1C[C@H]2CCCC[C@H]2C[C@H]1C(=O)NC(C)(C)C", "note": "(relative stereo) [Example 30, [3S-(3R*,4aR*,8aR*,2'S*,3'R*)]-2-[2'-Hydroxy-3'-phenylmethyl-4'-aza-5'-oxo-5'-(3''-[1''',2''',3''',4'''-tetrahydroisoquinolin-1'''-ylcarbonyl]-6''-methyl)phenyl]pentyl-decahydroisoquinoline-3-N-t-butylcarboxamide]", "βAP Production Inhibition": "69.2 ± 2.2"}
{"smiles": "Cc1cccc2ccc(C(=O)N[C@@H](CC(N)=O)C(=O)N[C@@H](Cc3ccccc3)[C@H](O)Cc3ccccc3C(=O)NC(C)(C)C)nc12", "note": "[Example 9, [1S-(1R*,4R*,5S*)]-N-(1-(2-Amino-2-oxoethyl)-2-oxo-3-aza-4-phenylmethyl-5-hydroxy-6-(2-(1-t-butylamino-1-oxomethyl)phenyl)hexyl)-8-methylquinolin-2-yl carboxamide]", "inhibition at 10 µg/mL": "44.4 ± 7.7"}
{"smiles": "CC(C)C(NC(=O)C(Cc1cccc2ccccc12)NC(=O)OC(C)(C)C)C(=O)NC(Cc1ccccc1)C(O)Cc1ccccc1C(=O)NC(C)(C)C", "note": "(stereo not drawn) [Example 23, [2R-(2R*,3S*,6S*,9S*)]-N-t-Butyl-2-[2-hydroxy-3-phenylmethyl-4,7-diaza-5,8-dioxo-6-(1-methylethyl)-9-N(t-butoxycarbonyl)amino-10-naphth-1-yl]decyl benzamide]", "inhibition at 10 µg/mL": "96.3 ± 2.8"}
{"smiles": "CC(C)C(NC(=O)C(Cc1cccc2ccccc12)NC(=O)OC(C)(C)C)C(=O)NC(Cc1ccccc1)C(O)Cc1ccccc1C(=O)NC(C)(C)C", "note": "(stereo not drawn) [Example 24, [2R-(2R*,3S*,6S*,9R*)]-N-t-Butyl-2-[2-hydroxy-3-phenylmethyl-4,7-diaza-5,8-dioxo-6-(1-methylethyl)-9-N(t-butoxycarbonyl)amino-10-naphth-1-yl]decyl benzamide]", "βAP Production Inhibition": "92.7 ± 1.4"}
{"smiles": "CC(=O)NCC(=O)N[C@H](C(=O)N[C@H](C(=O)N[C@@H](CC(C)C)[C@@H](O)CC(=O)N[C@@H](C)C(=O)N[C@H](C(=O)O)[C@@H](C)O)C(C)C)C(C)C", "note": "[Example 41, CH3C(O)-Gly-Val-Val-Sta-Ala-Thr-OH] (Ac-GVV[Sta]AT-OH)", "βAP Production Inhibition": "-6.2 ± 6.2"}
{"smiles": "CC(C)C[C@H](NC(=O)[C@@H](NC(=O)[C@@H](NC(=O)CNC(C)C)C(C)C)C(C)C)[C@@H](O)CC(=O)N[C@@H](C)C(=O)N[C@H](C(=O)O)[C@@H](C)O", "note": "[Example 42, (CH3)2CH-Gly-Val-Val-Sta-Ala-Thr-OH] (H-[N(iPr)Gly]VV[Sta]AT-OH)", "βAP Production Inhibition": "13.1 ± 7.5"}
{"smiles": "CC(C)C[C@H](NC(=O)[C@@H](NC(=O)[C@@H](NC(=O)CN)C(C)C)C(C)C)[C@@H](O)CC(=O)N[C@@H](C)C(=O)N[C@H](C(=O)O)[C@@H](C)O", "note": "[Example 43, Gly-Val-Val-Sta-Ala-Thr-OH] (H-GVV[Sta]AT-OH)", "βAP Production Inhibition": "16.2 ± 8.5"}
{"smiles": "CC(C)C[C@H](NC(=O)[C@@H](NC(=O)CN)C(C)C)[C@@H](O)CC(=O)N[C@@H](C)C(=O)N[C@H](C(=O)O)[C@@H](C)O", "note": "[Example 45, Gly-Val-Sta-Ala-Thr-OH] (H-GV[Sta]AT-OH)", "βAP Production Inhibition": "3.3 ± 1.1"}
{"smiles": "CC[C@H](C)[C@H](NC(=O)C[C@H](O)[C@H](CC(C)C)NC(=O)[C@@H](NC(=O)CNC(C)C)C(C)C)C(=O)N[C@@H](C)C(=O)N[C@H](C(=O)O)[C@@H](C)O", "note": "[Example 48, (CH3)2CH-Gly-Val-Sta-Ile-Ala-Thr-OH] (H-[N(iPr)Gly]V[Sta]IAT-OH)", "βAP Production Inhibition": "1.6 ± 19.8"}
